From ChEMBL document CHEMBL1134730, “Synthesis and biological evaluation of didemnin photoaffinity analogues” (Bioorg Med Chem Lett, 2001)
*1 amine or outer side, *2 acyl side, *3 side chain or, on linkers, in order; H or OH if unused. Where a SMILES comes first, the peptide text is derived from it. Bridges are numbered along the chain shown (N, C = ends). [ ]: non-standard residue; d: D form. The star is where a group is joined. ξ: configuration not given here. X1 = CC[C@H](C)[C@@H](N[*:1])[C@@H](O)CC(=O)O[C@H](C(=O)[C@H](C)C(=O)[*:2])C(C)C; Benzoyl(4-benzoyl) = O=C(c1ccccc1)c1ccc(C(=O)*)cc1; NMeY = CN[C@@H](Cc1ccc(O)cc1)C(=O)O; dNMeL = CN[C@H](CC(C)C)C(=O)O; Ahx = NCCCCCC(=O)O; ξP = O=C(O)C1CCCN1

Assays:
Assay type in all cases: functional
[1] = The compound was evaluated for total growth inhibition in NCI-60 tumor cells.; conditions: Homo sapiens
[2] = The compound was evaluated for growth inhibition in NCI-60 tumor cells.; conditions: Homo sapiens
[3] = The compound was evaluated for inhibition of protein biosynthesis.
[4] = The compound was evaluated for toxicity in NCI-60 tumor cells.; conditions: Homo sapiens

SMILES	TGI [1]	GI50 [2]	IC50 [3]	LC50 [4]
CC[C@H](C)[C@H]1NC(=O)[C@@H](NC(=O)[C@@H](CC(C)C)N(C)C(=O)CCCCCNC(=O)CCCCCNC(=O)c2ccc(C(=O)c3ccccc3)cc2)[C@@H](C)OC(=O)[C@H](Cc2ccc(OC)cc2)N(C)C(=O)C2CCCN2C(=O)[C@H](CC(C)C)NC(=O)[C@@H](C)C(=O)[C@H](C(C)C)OC(=O)C[C@@H]1O (stereo partly specified)	5 µM	0.017 µM	19 µM	48 µM
CC[C@H](C)[C@H]1NC(=O)[C@@H](NC(=O)[C@@H](CC(C)C)N(C)C(=O)CCCCCNC(=O)c2ccc(C(=O)c3ccccc3)cc2)[C@@H](C)OC(=O)[C@H](Cc2ccc(OC)cc2)N(C)C(=O)C2CCCN2C(=O)[C@H](CC(C)C)NC(=O)[C@@H](C)C(=O)[C@H](C(C)C)OC(=O)C[C@@H]1O (stereo partly specified) ({Benzoyl(4-benzoyl)-Ahx}-[dNMeL]T[X1]L[ξP][NMeY](Me); ester 2-C)	21 µM	0.0043 µM	24 µM	19 µM
CC[C@H](C)[C@H]1NC(=O)[C@@H](NC(=O)[C@@H](CC(C)C)N(C)C(=O)CNC(=O)c2ccc(C(=O)c3ccccc3)cc2)[C@@H](C)OC(=O)[C@H](Cc2ccc(OC)cc2)N(C)C(=O)C2CCCN2C(=O)[C@H](CC(C)C)NC(=O)[C@@H](C)C(=O)[C@H](C(C)C)OC(=O)C[C@@H]1O (stereo partly specified) ({Benzoyl(4-benzoyl)}-G[dNMeL]T[X1]L[ξP][NMeY](Me); ester 3-C)	2 µM	0.013 µM	4.5 µM	23 µM
CC[C@H](C)[C@H]1NC(=O)[C@@H](NC(=O)[C@@H](CC(C)C)N(C)C(=O)c2ccc(C(=O)c3ccccc3)cc2)[C@@H](C)OC(=O)[C@H](Cc2ccc(OC)cc2)N(C)C(=O)C2CCCN2C(=O)[C@H](CC(C)C)NC(=O)[C@@H](C)C(=O)[C@H](C(C)C)OC(=O)C[C@@H]1O (stereo partly specified) ({Benzoyl(4-benzoyl)}-[dNMeL]T[X1]L[ξP][NMeY](Me); ester 2-C)	0.35 µM	0.003 µM	4 µM	15 µM
